According to PMC12514245, “Impaired migration and lung invasion of human melanoma by a novel small molecule targeting the transmembrane domain of death receptor p75^NTR” (EMBO Molecular Medicine, 2025):
Where “and” joins values, the source holds several entries; their conditions need not be identical. Equal entries are not always repeated. Entries after “also recorded” stand apart in the source; their conditions may differ.

Tests used:
[1] = system: A875-shp75 melanoma xenograft; experiment: Melanoma lung invasion assay, A875-shp75, delayed treatment 3 weeks after cell injection; type: in vivo, SCID mice; conditions: group average
Procedure: (§1) Finally, we investigated whether delayed administration of Np75-4A22 was able to affect engraftment and growth of metastatic tumors in the lung. To this end, drug treatment (orally at 200 mg/kg) was initiated 3 weeks after intravenous injection of A875-NT or A875-shp75 cells in female SCID mice and continued for additionally 4 weekly cycles (5 days on/2 days off) as above (Fig. 8E). Metastatic spread to the lungs was monitored weekly by bioluminescent imaging of luciferase-expressing melanoma cells. […] We conclude that Np75-4A22 can be efficacious at reducing the spread and seeding of melanoma cells in the lung when administered either before or after cell implantation.
(§2) Eight-week-old female SCID mice (Charles River Laboratories, Shrewsbury, MA, USA) were housed in groups of three to five and maintained on a 12-h light/dark schedule with a temperature of 22 °C ± 1 °C and a relative humidity of 50% ± 5%. Food and water were available ad libitum. This research study was reviewed and approved by the University of Calgary Animal Care Committee (AC22-0054) and McGill University (AUP-JGH-8269) and adheres to established ethical principles and guidelines. A875-GFPLuc (A875-NT) or A875-GFPLuc shp75 (A875-shp75) cells harvested using Puck’s EDTA were resuspended in PBS and injected intravenously into SCID mice (5 × 10^5 cells/200 μl per mouse). Np75-4A22 was dissolved in 0.5% sodium carboxymethyl cellulose (NaCMC) in reverse osmosis H2O and administered by oral gavage at 200 mg/kg/day starting one day prior to intravenous (tail vein) injection of tumor cells and continued for 3 1-week cycles (cycle: 5 days on drug, 2 days off drug). Tumor spread to the lung was monitored weekly by luciferase activity using the Xenogen IVIS-200 Optical in vivo luciferase imaging system as described previously (Lun et al, [2016]) and by immunohistochemistry (IHC) at designated time points. IHC was performed after formalin fixation, paraffin embedding and sectioning of the lungs, using a human-specific mouse polyclonal nucleolin antibody (1:500 dilution) and detected using Dako liquid DAB+ Substrate Chromogen System (Dako: k3468, California, USA) followed by a hematoxylin counterstain (Sigma, Oakville, ON, Canada). Sections were mounted and imaged on an Olympus phase contrast microscope (Olympus Life Science, Tokyo, Japan). For immunofluorescence, sections were stained with anti-human nucleolin and anti-human p75NTR antibodies (1:1000 dilution), subsequently detected with 1:200 dilutions of Alexa Fluor™ 488 Goat anti-Mouse IgG (H + L) Highly Cross-Adsorbed Secondary Antibody and Alexa Fluor™ 568 Goat anti-Rabbit IgG (H + L) Cross-Adsorbed Secondary Antibody. Sections were further stained with DAPI to detect all nuclei. Between each treatment, TBS Automation Wash Buffer (Biocare Medical TWB945M) was employed. Images were taken with LSM800 confocal microscope and ZEN system.

[2] = system: A875-NT melanoma xenograft; experiment: Melanoma lung invasion assay, A875-NT, delayed treatment 3 weeks after cell injection; type: in vivo, SCID mice; conditions: A875-NT, group average
Procedure: as §1, §2

p75^NTR TMD = target: T1, p75^NTR TMD (Homo sapiens, UniProt P08138); experiment: AraTM assay, wild-type p75NTR TMD (GFP/OD630); type: cell-based; conditions: structure-activity comparison
T1 sequence (P08138 250-275 limits assumed): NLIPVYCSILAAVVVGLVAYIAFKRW

A875 NT cells [3] = experiment: Boyden chamber chemotaxis/invasion assay, A875 NT; type: cell-based, human; conditions: 5μM Q_VD_pOH; for Fold change (invading cells), Mean: N=3
Procedure: For Boyden chamber assay, Corning® BioCoat™ Matrigel® Invasion Chambers 8.0 µm PET Membrane were used (cat. no. 354480). A875 NT or WM115 cells were serum-starved for 16 h and then seeded at 60,000 cells per well in serum-free media under different conditions, including DMSO (vehicle) or small molecules Div17E5 or Np75-4A22 at different concentrations to the top chamber of the Matrigel-coated trans-well chamber. The pan-caspase inhibitor Q_VD_poH (at 5 µM) was also introduced in the top chamber in some experiments. Two different chemoattractants, NGF (at 50 ng/ml or 100 ng/ml as indicated) or 10% FBS were added to the bottom chamber. Assays were carried out for 8 h after which filters were fixed in 4% PFA and stained with DAPI. Cells that had remained on the top of the filter were gently scrapped away with a cotton tip. The filter lower side was imaged on an inverted fluorescence microscope and counted using ImageJ software (NIH).

A875 melanoma cells (NT) = experiment: Cleaved PARP western blot (apoptosis), A875 NT; type: cell-based, human; conditions: Q-VD-pOH 5 µM; Div17E5 10 µM
Procedure: One of the main biological readouts of p75^NTR activity in response to neurotrophins is the induction of caspase-mediated apoptotic cell death (Underwood and Coulson, [2008]; Friedman, [2010]; Ibáñez and Simi, [2012]).
COS7, A875 and WM115 cell lines were cultured under standard conditions in DMEM supplemented with 10% fetal calf serum, 100 units/ml penicillin, […] streptomycin, and 2.5 mM glutamine. All cells were authenticated and tested for mycoplasma contamination. A875-NT (control) and A875 shp75 (knockdown) cell lines were described previously (Goh et al, [2018]).

A875 NT cells [4] = experiment: Wound healing cell motility assay, A875 NT; type: cell-based, human; conditions: for Wound area, Mean / Wound area, n1-n3: 5μM Q_VD_poH; for Wound area, Mean: N=3
Procedure: (§3) For wound healing assay, cells were grown until confluency and subjected to a wound across the cell mono-layer. Cells were then incubated with serum-free media either with DMSO or a small molecule (with or without 5 µM Q_VD_poH) and imaged at specific time-points. Cell migration is reflected as fold change in wound area over time.

A875 shp75 cells = experiment: Wound healing cell motility assay, A875 shp75; type: cell-based, human; conditions: 5μM Q_VD_poH; for Wound area, Mean: N=3
Procedure: as §3

`Cc1cccc(-c2cncc(Nc3ccc(Br)c(Cl)c3Cl)n2)c1C` [4A-22] was tested, and the “Average Photons/second/week, wk2” value ([1]; wk2) was 9.88E+04 Photons/second, the “Average Photons/second/week, wk3” value ([1]; wk3) was 1.46E+05 Photons/second and the “Average Photons/second/week, wk4” value ([1]; wk4) was 1.10E+05 Photons/second. For the same compound, the “Average Photons/second/week, wk5” value ([1]; wk5) was 2.77E+05 Photons/second, the “Average Photons/second/week, wk6” value ([1]; wk6) was 4.60E+05 Photons/second and the “Average Photons/second/week, wk7” value ([1]; wk7) was 1.10E+06 Photons/second. For the same compound, the “Average Photons/second/week, wk2” value ([2]; wk2) was 77712.5 Photons/second, the “Average Photons/second/week, wk3” value ([2]; wk3) was 189000 Photons/second and the “Average Photons/second/week, wk4” value ([2]; wk4) was 170125 Photons/second. For the same compound, the “Average Photons/second/week, wk5” value ([2]; wk5) was 304375 Photons/second, the “Average Photons/second/week, wk6” value ([2]; wk6) was 845350 Photons/second and the “Average Photons/second/week, wk7” value ([2]; wk7) was 3166750 Photons/second.

For `COc1ccccc1-c1cncc(Nc2ccc([N+](=O)[O-])cc2)n1` [Np75-3A01], the “activity in the AraTM assay” value (p75^NTR TMD) was “MS_18 more potent than Np75-3A01, -3A02”.

`COc1cccc(-c2cncc(Nc3ccc([N+](=O)[O-])cc3)n2)c1` [Np75-3A02] was tested, and the “activity in the AraTM assay” value (p75^NTR TMD) was “MS_18 more potent than Np75-3A01, -3A02”.

For `Cc1ccccc1-c1cncc(Nc2ccc([N+](=O)[O-])cc2)n1` [Np75-3A19], the “activity in the AraTM assay” value (p75^NTR TMD) was “Np75-3A21 better than -3A19 and -3A20”.

`Cc1cccc(-c2cncc(Nc3ccc([N+](=O)[O-])cc3)n2)c1` [Np75-3A20] was tested, and the “activity in the AraTM assay” value (p75^NTR TMD) was “Np75-3A21 better than -3A19 and -3A20”.

For `Cc1ccc(-c2cncc(Nc3ccc([N+](=O)[O-])cc3)n2)cc1` [Np75-3A21], the “activity in the AraTM assay” value (p75^NTR TMD) was “best compounds; also recorded: Np75-3A21 better than -3A19 and -3A20; also recorded: best hit from this series”.

In the case of `O=C(Nc1ccc([N+](=O)[O-])cc1)c1cncc(-c2ccc3ccccc3c2)n1` [Np75-3A49], the “activity in the AraTM assay” value (p75^NTR TMD) was “activity was lost”.

With `O=C(Nc1ccc([N+](=O)[O-])cc1)c1cncc(-c2cccc(OC3CCCC3)c2)n1` [Np75-3A51] the “activity in the AraTM assay” value (p75^NTR TMD) was “activity was lost”.

In the case of `COc1ccc(-c2cncc(Nc3ccc(Br)c(Cl)c3)n2)cc1` [Np75-3B03], the “activity in the AraTM assay” value (p75^NTR TMD) was “best compound in this series; also recorded: less potent than MS_18”.

`CC(C)[C@H](NC(=O)c1ccc2ccccc2n1)C(=O)N[C@@H](CC(=O)O)C(=O)COc1c(F)cccc1F` [Q-VD-pOH, reference compound] was tested, and the “Fold change (invading cells), n1-n3” value (A875 NT cells [3]; With NGF) was 2.27 Fold and 1.89 Fold and 2.17 Fold, the “Fold change (invading cells), Mean” value (A875 NT cells [3]; With NGF) was 2.11 Fold and the “Fold change (invading cells), n1-n3” value (A875 NT cells [3]; without NGF) was 1.22 Fold and 1.02 Fold and 1.42 Fold. For the same compound, the “Fold change (invading cells), Mean” value (A875 NT cells [3]; without NGF) was 1.22 Fold, the “block of Div17E5-induced apoptosis (cleaved PARP)” value (A875 melanoma cells (NT)) was “could be blocked” and the “rescue of Div17E5 effect on cell motility by caspase inhibitor” value (A875 NT cells [4]) was “could not be rescued”. For the same compound, the “Wound area, Mean” value (A875 NT cells [4]; 0 hours) was 1.000 Fold, the “Wound area, n1-n3” value (A875 NT cells [4]; 3 hours) was 0.912 Fold and 1.045 Fold and 0.955 Fold and the “Wound area, Mean” value (A875 NT cells [4]; 3 hours) was 0.971 Fold. The “Wound area, n1-n3” value (A875 NT cells [4]; 6 hours) was 0.873 Fold and 1.010 Fold and 0.935 Fold, the “Wound area, Mean” value (A875 NT cells [4]; 6 hours) was 0.939 Fold and the “Wound area, n1-n3” value (A875 NT cells [4]; 9 hours) was 0.814 Fold and 0.952 Fold and 0.859 Fold. For the same compound, the “Wound area, Mean” value (A875 NT cells [4]; 9 hours) was 0.875 Fold, the “Wound area, n1-n3” value (A875 NT cells [4]; 12 hours) was 0.792 Fold and 0.920 Fold and 0.820 Fold and the “Wound area, Mean” value (A875 NT cells [4]; 12 hours) was 0.844 Fold. The “Wound area, n1-n3” value (A875 NT cells [4]; 15 hours) was 0.758 Fold and 0.880 Fold and 0.797 Fold, the “Wound area, Mean” value (A875 NT cells [4]; 15 hours) was 0.811 Fold and the “Wound area, n1-n3” value (A875 NT cells [4]; 18 hours) was 0.732 Fold and 0.836 Fold and 0.772 Fold. The “Wound area, Mean” value (A875 NT cells [4]; 18 hours) was 0.780 Fold, the “Wound area, n1-n3” value (A875 NT cells [4]; 21 hours) was 0.724 Fold and 0.832 Fold and 0.756 Fold and the “Wound area, Mean” value (A875 NT cells [4]; 21 hours) was 0.771 Fold. For the same compound, the “Wound area, n1-n3” value (A875 NT cells [4]; 24 hours) was 0.707 Fold and 0.800 Fold and 0.730 Fold, the “Wound area, Mean” value (A875 NT cells [4]; 24 hours) was 0.746 Fold and the “Wound area, n1-n3” value (A875 shp75 cells; 0 hours) was 0.942 Fold and 1.051 Fold and 1.006 Fold. The “Wound area, Mean” value (A875 shp75 cells; 0 hours) was 1.000 Fold, the “Wound area, n1-n3” value (A875 shp75 cells; 3 hours) was 0.980 Fold and 1.009 Fold and 0.979 Fold and the “Wound area, Mean” value (A875 shp75 cells; 3 hours) was 0.989 Fold. The “Wound area, n1-n3” value (A875 shp75 cells; 6 hours) was 0.990 Fold and 1.014 Fold and 0.952 Fold, the “Wound area, Mean” value (A875 shp75 cells; 6 hours) was 0.985 Fold and the “Wound area, n1-n3” value (A875 shp75 cells; 9 hours) was 0.935 Fold and 0.937 Fold and 0.886 Fold. The “Wound area, Mean” value (A875 shp75 cells; 9 hours) was 0.919 Fold, the “Wound area, n1-n3” value (A875 shp75 cells; 12 hours) was 0.939 Fold and 0.913 Fold and 0.875 Fold and the “Wound area, Mean” value (A875 shp75 cells; 12 hours) was 0.909 Fold. The “Wound area, n1-n3” value (A875 shp75 cells; 15 hours) was 0.891 Fold and 0.870 Fold and 0.844 Fold, the “Wound area, Mean” value (A875 shp75 cells; 15 hours) was 0.869 Fold and the “Wound area, n1-n3” value (A875 shp75 cells; 18 hours) was 0.856 Fold and 0.835 Fold and 0.800 Fold. For the same compound, the “Wound area, Mean” value (A875 shp75 cells; 18 hours) was 0.830 Fold, the “Wound area, n1-n3” value (A875 shp75 cells; 21 hours) was 0.849 Fold and 0.778 Fold and 0.767 Fold and the “Wound area, Mean” value (A875 shp75 cells; 21 hours) was 0.798 Fold. For the same compound, the “Wound area, n1-n3” value (A875 shp75 cells; 24 hours) was 0.815 Fold and 0.772 Fold and 0.761 Fold and the “Wound area, Mean” value (A875 shp75 cells; 24 hours) was 0.783 Fold.
